The target in test [1] is T1, HCV NS5B polymerase (His-tagged, C-terminal 21 amino acid deleted NS5B, HC-J4) (Hepatitis C virus genotype 1b, UniProt O92972).
T1 construct: The cDNA encoding NS5B amino acid 1-570 (HC-J4, genotype 1b); His tag (His6, from pET-21b) (C); made in house; host or cells: E. coli BL21 (DE3)
Nature of the test: NS5b polymerase assay (biochemical RdRp assay, 3H-GTP incorporation, SPA beads). Also on record: species or system HCV genotype 1b. The procedure: (§1) The compounds of formula (I) were tested for anti-HCV activity in an assay determining their activity against NS5b polymerase and in an HCV replicon assay
The cDNA encoding NS5B amino acid 1-570 (HC-J4, genotype 1b, pCV-J4L6S, genebank accession number AF054247) was subcloned into the Nhe I and Xho I restriction sites of pET-21b. Expression of the subsequent His-tagged C-terminal 21 amino acid deleted NS5B was performed as follows:
Following transformation in BL21 (DE3) competent cells, bacterial cells were grown in 22 liter LB/Amp media until to reach OD600=0.4-0.6. Protein expression was induced by addition of IPTG 0.4 mM, supplemented with 10 μM MgCl2, and incubated for 14-16 hrs at 20° C. Cells were harvested, resuspended in lysis buffer (20 mM Tris-HCl pH=7.5, 0.3 M NaCl, 10% glycerol, 0.1% NP40, 4 mM MgCl2, 14 mM beta-mercaptoethanol, with tablet of EDTA-free protease cocktail inhibitors) and lysed by sonification. The cell lysate was cleared by high-speed centrifugation (20K×g for 30 min), captured on Ni-NTA beads for 70 min at 4° C., and eluted with 25 mM Hepes pH 7.5, 0.5 M NaCl, 10% glycerol, 14 mM BME, 500 mM imidazole. The eluent was dialysed against 25 mM Hepes pH 7.5, 10% glycerol, 50 mM NaCl, 14 mM BME, after which the protein was further purified by heparin chromatography using the same buffer with 1 M NaCl for elution. Fractions containing pure protein were collected, dialyzed against storage buffer 25 mM Hepes pH=7.5, 300 mM NaCl, 10% glycerol, 14 mM BME), and flash-freezed in liquid nitrogen.
Measurement of HCV NS5B polymerization activity was performed by evaluating the amount of radiolabeled GTP incorporated by the enzyme in a newly synthesized RNA using heteropolymeric RNA template/primer. The highthroughput RdRp assay was carried out in 384-well plates using 200 nM enzyme, 0.1 μCi of ^3H GTP, 5 mM MgCl2, 600 nM GTP, 30 nM PolyC, 300 nM 5′-biotinylated oligo(rG13)/poly(rC) in 20 mM Tris pH 7.5, 21 mM KCl, 2.5 mM DTT, 16.7 mM NaCl and 0.17 mM EDTA. Test compounds were dissolved in dimethylsulfoxide. The test compounds were added to the preformed polymerase-template complex, and incubated at room temperature (RT) for 15 min before the addition of NTPs. The 30-μl reaction was terminated after 2 h at 25° C. upon addition of 30-μl PVT-SPA beads (Amersham Biosciences RPNQ0009, 5 mg/ml in 0.5 M EDTA).

The test system of test [2] is HCV replicon RNA replication in Huh-7 luc/neo (Huh-Luc) cells. Nature of the test: HCV replicon assay (stable replicon cell reporter assay, luciferase read-out). In kind it is cell-based, HCV type 1b. The procedure:
as §1
The compounds of the present invention were examined for activity in the inhibition of HCV RNA replication in a cellular assay. […] The cellular assay was based on a bicistronic expression construct, as described by Lohmann et al. (1999) Science vol. 285 pp. 110-113 with modifications described by Krieger et al. (2001) Journal of Virology 75: 4614-4624, in a multi-target screening strategy. In essence, the method was as follows.
The assay utilized the stably transfected cell line Huh-7 luc/neo (hereafter referred to as Huh-Luc). This cell line harbored an RNA encoding a bicistronic expression construct comprising the wild type NS3-NS5B regions of HCV type 1b translated from an Internal Ribosome Entry Site (IRES) from encephalomyocarditis virus (EMCV), preceded by a reporter portion (FfL-luciferase), and a selectable marker portion (neo^R, neomycine phosphotransferase). The construct was bordered by 5′ and 3′ NTRs (non-translated regions) from HCV type 1b. Continued culture of the replicon cells in the presence of G418 (neo^R) was dependent on the replication of the HCV RNA. The stably transfected replicon cells that expressed HCV RNA, which replicated autonomously and to high levels, encoding inter alia luciferase, were used for screening the antiviral compounds.
The replicon cells were plated in 384 well plates in the presence of the test and control compounds which were added in various concentrations. Following an incubation of three days, HCV replication was measured by assaying luciferase activity (using standard luciferase assay substrates and reagents and a Perkin Elmer ViewLux™ ultraHTS microplate imager). […] The inhibitory activity of the compound on luciferase activity was monitored on the Huh-Luc cells, enabling a dose-response curve for each test compound.
On the technique in general: In antiviral work, replicon cells carry a viral genome segment that copies itself.

[3] abbreviates: 200 nM enzyme, 3H-GTP incorporation, 2 h at 25° C., read-out: NS5B Polymerase Assay IC50.
The mark [4] stands for this setting: Huh-Luc cells, three days incubation, luciferase activity, read-out: Replicon Assay EC50.
[5] abbreviates: NS5B Polymerase Assay IC50, 200 nM enzyme, 3H-GTP incorporation, 2 h at 25° C.
Where [6] appears, read: NS5B Polymerase Assay IC50 (μM).

In US20090221559A1 (priority 2005, published 2009) one finds IC50 and EC50 data, which are given here for 32 compounds.

Read-outs that look alike come from different tables or passages of the source. Where only a bound is given, the exact number is not on record here.

T1 sequence (O92972 2417-3000, looked up, stated change not applied): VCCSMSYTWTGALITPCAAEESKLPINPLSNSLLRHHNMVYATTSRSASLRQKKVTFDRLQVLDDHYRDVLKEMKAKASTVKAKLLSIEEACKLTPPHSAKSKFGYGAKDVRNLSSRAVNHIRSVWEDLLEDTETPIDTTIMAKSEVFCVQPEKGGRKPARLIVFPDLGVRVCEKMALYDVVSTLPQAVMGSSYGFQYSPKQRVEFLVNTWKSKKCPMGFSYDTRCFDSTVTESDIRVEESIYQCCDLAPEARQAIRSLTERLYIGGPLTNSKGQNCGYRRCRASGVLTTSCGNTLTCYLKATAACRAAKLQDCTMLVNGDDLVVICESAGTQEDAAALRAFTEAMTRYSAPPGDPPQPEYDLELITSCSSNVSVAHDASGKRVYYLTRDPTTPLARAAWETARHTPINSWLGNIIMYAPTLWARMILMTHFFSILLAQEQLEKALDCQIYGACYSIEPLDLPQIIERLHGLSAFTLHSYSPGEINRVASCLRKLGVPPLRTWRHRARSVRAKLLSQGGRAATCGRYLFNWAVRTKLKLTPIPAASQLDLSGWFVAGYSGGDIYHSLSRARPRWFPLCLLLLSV

Regarding “3-(2-benzyloxyphenyl)-11-[3-(4-chlorobenzoyloxy)phenyl]-2,3,4,5,10,11-hexahydro-dibenzo[b,e][1,4]diazepin-1-one [compound 513]”, the IC50 – broadly, the concentration at which inhibition is half-maximal – in test [1] (read-out: NS5B Polymerase Assay IC50) amounted to 70.1 µM. The EC50 (in general, the concentration needed to bring the measured effect to its halfway point) in test [2] (Huh-Luc cells, incubation of three days, luciferase activity, read-out: Replicon Assay EC50) turned out to be 3.67 µM.

Turning to `COc1ccc(C2C3=C(CC(c4cccc([N+](=O)[O-])c4)CC3=O)Nc3ccccc3N2C(C)=O)cc1OC` (mixture of isomers) [compound 180], the IC50 in test [1] (setting [3]) is greater than 42.7 µM. Moreover, the EC50 in test [2] (setting [4]) stood at 11.8 µM.

On to `CCCCCC(=O)N1c2ccccc2NC2=C(C(=O)CC(c3ccc(OC)c(OC)c3)C2)C1c1cccc([N+](=O)[O-])c1` (mixture of isomers) [compound 181], for which the IC50 in test [1] (setting [3]) is greater than 33.3 µM. Moreover, the EC50 in test [2] (setting [4]) was 2.41 µM.

As for `CCCCCC(=O)N1c2ccccc2NC2=C(C(=O)CC(c3ccc(C)cc3)C2)C1c1ccccc1Cl` (mixture of isomers) [compound 182], in test [1] (setting [3]), the IC50 was greater than 42.7 µM. Further, the EC50 in test [2] (setting [4]) was 1.82 µM.

In the case of `CCCCCC(=O)N1c2ccccc2NC2=C(C(=O)CC(c3ccc(OC)c(OC)c3)C2)C1c1ccc(Cl)cc1` (mixture of isomers) [compound 185], the IC50 in test [1] (setting [3]) is greater than 33.3 µM. In addition, in test [2] (setting [4]), the EC50 is 4.79 µM.

With `COc1ccc(C2C3=C(CC(c4ccc(C)cc4)CC3=O)Nc3ccccc3N2C(=O)c2ccccc2)cc1` (mixture of isomers) [compound 188], in test [1] (setting [3]), the IC50 is greater than 33.3 µM. The half-maximal effective concentration (EC50) in test [2] (setting [4]) is 5.16 µM.

On to `CCC(=O)N1c2ccccc2NC2=C(C(=O)CC(c3ccc(OC)c(OC)c3)C2)C1c1cccc(Cl)c1` (mixture of isomers) [compound 193], for which, in test [1] (setting [3]), the IC50 was greater than 33.3 µM. Also, the EC50 in test [2] (setting [4]) was found to be 5.92 µM.

For `COc1ccc(C2C3=C(CC(c4ccc(C)cc4)CC3=O)Nc3ccccc3N2C(=O)C(F)(F)F)cc1` (mixture of isomers) [compound 194], in test [1] (setting [3]), the IC50 is greater than 33.3 µM. In test [2] (setting [4]), the EC50 came to 5.22 µM.

Regarding `CCC(=O)N1c2ccccc2NC2=C(C(=O)CC(c3ccc(C)cc3)C2)C1c1cccc(Cl)c1` (mixture of isomers) [compound 195], in test [1] (setting [3]), the IC50 is greater than 33.3 µM. Moreover, in test [2] (setting [4]), the EC50 was found to be 6.9 µM.

On to `COc1ccc(C2CC(=O)C3=C(C2)Nc2ccccc2N(C(=O)C(F)(F)F)C3c2ccc(C)cc2)cc1` (mixture of isomers) [compound 196], for which the IC50 in test [1] (setting [3]) was greater than 33.3 µM. In test [2] (setting [4]), the EC50 stood at 7.32 µM.

With `COc1ccc(C2C3=C(CC(c4ccc(C)cc4)CC3=O)Nc3ccccc3N2C(=O)c2ccccc2)cc1OC` (mixture of isomers) [compound 197], the half-inhibitory concentration (IC50) in test [1] (setting [3]) is greater than 33.3 µM. Besides, in test [2] (setting [4]), the EC50 turned out to be 8.97 µM.

As for `COc1ccc(C2CC(=O)C3=C(C2)Nc2ccccc2N(C(C)=O)C3c2cccc(Cl)c2)cc1OC` (mixture of isomers) [compound 198], the IC50 in test [1] (setting [3]) is greater than 33.3 µM. For the same compound, the EC50 in test [2] (setting [4]) was determined as 9.22 µM.

Take `CC(=O)N1c2ccccc2NC2=C(C(=O)CC(c3ccccc3)C2)C1c1ccc(C)cc1` (mixture of isomers) [compound 199]: the IC50 in test [1] (setting [3]) is greater than 42.7 µM. Besides, the EC50 in test [2] (setting [4]) came out at 11.5 µM.

Take `COc1ccc(C2C3=C(CC(c4ccc(Cl)cc4)CC3=O)Nc3ccccc3N2C(=O)C(F)(F)F)cc1` (mixture of isomers) [compound 200]: in test [1] (setting [3]), the 50% inhibitory concentration (IC50) is greater than 33.3 µM. In test [2] (setting [4]), the EC50 is 9.57 µM.

As for `CCC(=O)N1c2ccccc2NC2=C(C(=O)CC(c3cccc([N+](=O)[O-])c3)C2)C1c1ccc(Cl)cc1` (mixture of isomers) [compound 211], the IC50 in test [1] (setting [3]) is greater than 42.7 µM.

`O=C1CC(c2cccc([N+](=O)[O-])c2)CC2=C1C(c1ccc(Cl)cc1)N(C(=O)C(F)(F)F)c1ccccc1N2` (mixture of isomers) [compound 214]: in test [1] (setting [3]), the IC50 is greater than 42.7 µM.

In test [1] (setting [5]), `CC(=O)N1c2ccccc2NC2=C(C(=O)CC(C)(C)C2)C1c1ccc(OCc2ccccc2)c(Cl)c1` (single isomer, unassigned) [compound 303, 10-acetyl-11-[4-benzyloxy-3-chlorophenyl]-3,3-dimethyl-2,3,4,5,10,11-hexahydro-1H-dibenzo[b,e][1,4]diazepin-1-one] came in with an IC50 of 31.5 µM.

On to `COc1ccc(C2C3=C(CC(C)(C)CC3=O)Nc3ccccc3N2C(=O)c2ccccc2)cc1OCc1ccccc1` (stereo not shown) [compound 51], for which the concentration giving a half-maximal response (EC50) in test [2] (setting [4]) was found to be 7.66 µM.

With `CC1(C)CC(=O)C2=C(C1)Nc1ccccc1N(C(=O)Cc1ccccc1)C2c1ccc(Br)cc1` (stereo not shown) [compound 95], the IC50 in test [1] (setting [5]) was greater than 33.3 µM.

On to `CC1(C)CC(=O)C2=C(C1)Nc1ccccc1N(C(=O)NCc1ccoc1)C2c1ccc(Cl)cc1Cl` (stereo not shown) [compound 158], for which the EC50 in test [2] (setting [4]) came to 31.1 µM.

Take `CC1(C)CC(=O)C2=C(C1)Nc1ccccc1N(C(=O)NCc1ccccc1)C2c1ccc(Cl)cc1Cl` (stereo not shown) [compound 159]: in test [2] (setting [4]), the EC50 was 9.59 µM.

As to `Cc1ccc(C2C3=C(CC(c4cccc(Cl)c4)CC3=O)Nc3ccccc3N2C(=O)C(F)(F)F)cc1` (stereo not shown) [compound 225], the 50% inhibitory concentration (IC50) in test [1] (setting [3]) was greater than 42.7 µM.

Regarding `CC1(C)CC(=O)C2=C(C1)Nc1ccccc1N(C(=O)Cc1ccccc1)C2c1ccc(-c2ccc([N+](=O)[O-])cc2)o1` (stereo not shown) [compound 238], the IC50 in test [1] (setting [5]) was greater than 42.7 µM.

Consider `CC(C)C(=O)N1c2ccccc2NC2=C(C(=O)CC(C)(C)C2)C1c1ccc([N+](=O)[O-])s1` (stereo not shown) [compound 239], for which the IC50 in test [1] (setting [5]) was greater than 42.7 µM.

As for `CC1(C)CC(=O)C2=C(C1)Nc1ccccc1N(C(=O)C(F)(F)F)C2/C(Br)=C/c1ccccc1` (stereo not shown) [compound 256], the EC50 in test [2] (Hepatitis C virus, Huh-7, 72 h, read-out: Replicon Assay EC50, Huh-Luc cells, three days incubation, luciferase activity) turned out to be 3.98 µM.

In turn, `CC1(C)CC(=O)C2=C(C1)Nc1ccccc1N(C(=O)c1ccccc1)C2c1ccc(-c2cccc([N+](=O)[O-])c2)o1` (stereo not shown) [compound 272] had an IC50 in test [1] (setting [5]) greater than 42.7 µM.

On to `CCCCCC(=O)N1c2ccccc2NC2=C(C(=O)CC(c3ccco3)C2)C1c1cccc([N+](=O)[O-])c1` (stereo not shown) [compound 290], for which the IC50 in test [1] (setting [5]) was greater than 42.7 µM.

Turning to `COc1ccc(C2CC(=O)C3=C(C2)Nc2ccccc2NC3c2ccccc2OC(C)C)cc1` (stereo not shown) [compound 333], in test [1] (setting [6]), the IC50 was greater than 42.7 µM.

With `COc1ccc(C2CC(=O)C3=C(C2)Nc2ccccc2NC3c2c(F)cccc2Cl)cc1` (stereo not shown) [compound 334], in test [1] (setting [6]), the IC50 is greater than 42.7 µM.

Consider `COc1ccc(OC)c(C2Nc3ccccc3NC3=C2C(=O)CC(c2ccccc2)C3)c1` (stereo not shown) [compound 351], for which, in test [1] (setting [6]), the IC50 was greater than 42.7 µM.

`O=C1C[C@@H](c2ccc(Cl)cc2)CC2=C1[C@H](c1cc3c(cc1[N+](=O)[O-])OCO3)Nc1ccccc1N2` [compound 475] showed an IC50 in test [1] (setting [6]) greater than 42.7 µM.

Regarding `O=C1C[C@@H](c2ccc(Cl)cc2)CC2=C1[C@H](c1cc3c(cc1Br)OCO3)Nc1ccccc1N2` [compound 479], the IC50 in test [1] (setting [6]) is greater than 42.7 µM.
